Measurements taken from patent US20120003298A1, “METHODS FOR INDUCING AN IMMUNE RESPONSE” (priority 2010, published 2012).

Columns and labels:
PBMCs = test: IL-6 and TNF-alpha secretion in PBMC model (Model 2), ELISA; format: cell-based, human; conditions: three donors
human whole blood = test: Cytokine secretion in human whole blood assay, ELISA; format: cell-based; conditions: whole blood, 6 hours
Experimental: Before drawing the blood, the compounds were added to 96 well round bottom plates in a 10× diluted sample at 20 ul. The compounds were diluted in RPMI media without serum but with antibiotics. Antibiotics were added at a 10× concentration. After drawing the blood, the whole blood sample was gently mixed to obtain a homogeneous sample, and 180 ul was added to each well.
All compounds were setup in concentrations at 0-0.01-0.03-0.1-0.5-2.0-10.0 micromolar as the final concentration. Vehicle control was DMSO control, where we used the highest concentration used for the compounds. After addition of blood, all plates were gently agitated at 37° C. and 5% CO2 until harvest.
For the 6 hours time point, the plate was centrifuged 500×g. Supernatant (SN) was transferred to a tube and centrifuged at 10.000×g for 10 min to get rid of cells and protein aggregates. The clarified supernatant was frozen at −80° C. until analysis.
The SN was removed to another tube and centrifuged at 10.000×g for 10 min. to get rid of aggregates etc. The clarified supernatant was frozen at −80° C. until analysis.
Concentrations of cytokines were determined by ELISA from R&D Systems. The results were analyzed in Graph Pad Prism in order to prepare dose-response
curves, and for determination of EC50 values. FACS analysis was made by using Becton-Dickinson FACSDiva software and subsequently illustrated in Graph Pad Prism.

HLA-DR+/CD20+ B cells = test: FACS, B cell activation in whole blood; format: cell-based, human; conditions: 24 hours; 2 and 10 uM
Experimental: (§2) The FACS analysis for donor 1 and donor 2 was made on another day than donor 3. The compound concentrations were as follows:
(§3) B cell activation: 2 and 10 uM mDC/pDC: 0.1 and 0.5 uM
(§4) The FACS analysis was used to identify whether the test compounds could induce activation of B cells, and two different subsets of dendritic cells, namely the myeloid CD11c+/CD123− DCs and the plasmacytoid CD11c−/CD123+DCs. The following markers were studied to identify the activation status of the different subsets:
B-cells: HLA-DR/CD20/CD40
The FACS staining was performed according to the manufacturer's instructions. Lysis of red blood cells was performed before FACS staining in order to minimize auto-florescence. To include as many B cells and DCs in the study as possible the FACS analyses were performed on 500,000 cells in total for each staining. […] The results of the individual analysis were present as Mean Fluorescence Intensity (MFI) values, for certain activation marker in a given gate setting, represent the actual cell subset. The isotype background values have been used to set the gates so that a maximum at 2% of unspecific stained cells could be found in the positive gates.
The analysis of expression of the activation marker CD40 on B cells was made on double positive HLA-DR (MHC class II) (P4 gate) and CD20 cells (B cell marker) (P8 gate).

[1] = test system: plasmacytoid CD11c−/CD123+DCs; test: FACS, plasmacytoid DC activation in whole blood; format: cell-based, human; conditions: 24 hours; 0.1 and 0.5 uM
Experimental: as §2, §3, §4
The FACS staining was performed according to the manufacturer's instructions. Lysis of red blood cells was performed before FACS staining in order to minimize auto-florescence. To include as many B cells and DCs in the study as possible the FACS analyses were performed on 500,000 cells in total for each staining. A P1 gate was set only to include relevant cells on FSC vs. SSC (see FIGS. 12-15). The results of the individual analysis were present as Mean Fluorescence Intensity (MFI) values, for certain activation marker in a given gate setting, represent the actual cell subset. The isotype background values have been used to set the gates so that a maximum at 2% of unspecific stained cells could be found in the positive gates.
The analysis of pDCs was based on HLA-DR+/CD11c−/CD123+ cells, thus all analyzed cells were included in the HLA-DR+ (P3) gate and CD11c−/CD123+(Q1) gate.

[2] = test system: Salmonella typhimurium TA1535, TA1537, TA98, TA100; test: Bacterial mutation assay, Salmonella typhimurium; format: cell-based
Experimental: (§1) The five tester strains TA1535, TA1537, TA98, TA100 and WP2 uvrA were used. Experiments were performed both in the absence and presence of metabolic activation, using liver S9 fraction from rats pre-treated with phenobarbitone and betanaphthoflavone. SC12 was used as a solution in dimethylsulfoxide (DMSO).

[3] = test system: Escherichia coli WP2 uvrA; test: Bacterial mutation assay, Escherichia coli; format: cell-based
Experimental: as §1

[4] = Single dose intravenous toxicity study in rats; format: in vivo, Sprague Dawley rat
Experimental: An additional group, similarly composed, received the vehicle alone and acted as a control. […] Clinical signs were limited to piloerection and reduced activity, observed on the day of dosing.
A second group was dosed at 100 mg/kg. […] A third group was then dosed at 85 mg/kg. […] A fourth group was finally dosed at 90 mg/kg. […] Piloerection was observed from Day 2 up to Day 4 of the study.
In the main phase, 5 male and 5 female animals were dosed at 90 mg/kg and observed for a period of 14 days. A second group, similarly constituted, received the vehicle alone and acted as control. […] In addition, one male and one female dosed at 90 mg/kg were found dead on Day 2 of the study. Twitches, ataxia, piloerection, reduced activity and hunched posture were the major signs observed in animals before death. […] Piloerection was observed up to Day 3 of the study. A second group, similarly composed, was dosed at 80 mg/kg.
Recovery occurred by Day 15 and the body weight changes were within the expected range for this species and age of animals at the end of the study. […] Surviving animals were killed at the end of the observation period with carbon dioxide narcosis. All animals, including the early decedents, were subjected to necropsy examination. […] Therefore, the maximum tolerated dose in this study was considered to be 80 mg/kg.

[5] = test system: 73 primary molecular targets; test: Radioligand binding assay among 73 primary molecular targets; conditions: SC12 tested at 30 microM
CYP2C9 = target: T1, CYP2C9 (Homo sapiens, UniProt P11712); test: Fluorescent High Throughput P450 assay, CYP2C9; format: biochemical
T1 construct: purchased Gentest
Experimental: (§5) Inhibition of the P450 isoforms was measured in specific assays using specific substrates that become fluorescent upon CYP metabolism. Compounds, dissolved in ACN (acetonitrile) (CYP2E1, CYP2C8, CYP2B6, CYP3A5) or DMSO (all remaining isoforms), were tested in duplicate (n=2) in concentration-response curves (eight concentrations) in a 96-well plate containing incubation/NADPH regenerating buffer. Specific isoenzymes and substrates were added and incubated at 37° C. Reactions were terminated at different times, depending on the assays, and plates read on a Fluoroskan Ascent at the appropriate emission/excitation wavelengths. Concentration-response curves performed in duplicate for known inhibitors for each isoenzyme were tested in every assay as positive control.

CYP3A4 = target: T2, CYP3A4 (Homo sapiens, UniProt P08684); test: Fluorescent High Throughput P450 assay, CYP3A4; format: biochemical
T2 construct: purchased Gentest
Experimental: as §5

CYP3A5 = target: T3, CYP3A5 (Homo sapiens, UniProt P20815); test: Fluorescent High Throughput P450 assay, CYP3A5; format: biochemical
T3 construct: purchased Gentest
Experimental: as §5

CYP2E1 = target: T4, CYP2E1 (Homo sapiens, UniProt P05181); test: Fluorescent High Throughput P450 assay, CYP2E1; format: biochemical
T4 construct: purchased Gentest
Experimental: as §5

[6] = test system: recombinant antigens from Plasmodium falciparum and Mycobacterium ulcerans; test: Pilot immunization study with adjuvanted recombinant protein antigens; format: in vivo, mouse
Experimental: A pilot immunization study was conducted using Compound A and SC12 adjuvanted protein antigens. The immunization experiments were performed with two recombinant proteins expressed in E. coli. One antigen was derived from the malaria parasite Plasmodium falciparum and the other one from Mycobacterium ulcerans, which cause the ulcerative skin disease Buruli ulcer.

MB49 cells = test: Mouse bladder cancer model, intravesical treatment (Experiment 24); format: in vivo
Experimental: A set of experiments was conducted with SC12 in various solutions, in a mouse bladder cancer model.
7-9 week old C57BU6 mice were implanted with 1×10^6 MB49 cells after 0.1% poly L lysine treatment on day 0. […] On day 11, mice were sacrificed and organs were harvested.

[7] = test system: AY-27 rat bladder cancer cell-line; conditions: in vivo
[8] = test system: Cutaneous Squamous Cell Carcinoma (SCC) cell lines SCL-I, SCL-II, SCC-12, SCC-13
Experimental: SCC cells are grown under standard conditions (10% FBS).
Time and dose dependency of effects on total cell numbers have been investigated by real-time cell analysis, which is based on continuous monitoring of electric conductance in microtiter wells (E-plates, Roche), which corresponds to the cell numbers. […] For these assays 4 cell lines may be used to obtain a representative overview on the effects on SCC cells.

[9] = Intravenous pharmacokinetics in the mouse
Experimental: An IV bolus was administered into the caudal vein at a dose of 1 mg/kg in 5 ml. The compound weight was 2.08/10.04 ml. 24 mice were studied. Sampling was obtained by exsanguination under anesthesia, at 5, 15, 30, 60, 240, and 480 minutes, and at 24 hours. […] Animals were sacrificed using ethyl ether at the conclusion of the experiment.
Sample preparation: In a Sirocco filter plate, 100 microliters of plasma were added to 300 microliters of ACN/MeOH spiked with 5 microliters of IS (IV298 10 micrograms per ml) plus 10 microliters of 5% H3PO4. The plate was shaken for 10 minutes at 80 rpm and then filtered under vacuum for 5 minutes.
Analytical method: LC/MS/MS: Premiere XE, Eluent: water (A) MeOH(B) plus 0.1% HCOOH gradient. 15% B to 100% B from 0.1 to 0.5, then isocratic 100% B up to 1.5 minutes, flow 0.8 ml/min; Column Acquity HPLC BEH C18 1.7 microm 2.1×50 mm, injection volume of 5 microliters in a T column at 50° C. ESI positive, MRM, Extractor 5V; Capillary 3.5 kV; T source 115° C.; T desolv. 450° C.
Data analysis: Non-compartmental analysis WinNonlin 5.1; linear trapezoidal, uniform weight.

[10] = 50.0-5000 micrograms/plate, absence or presence of S9
[11] = up to 5000 micrograms/plate, absence or presence of S9 metabolism

T3 sequence (P20815 whole entry): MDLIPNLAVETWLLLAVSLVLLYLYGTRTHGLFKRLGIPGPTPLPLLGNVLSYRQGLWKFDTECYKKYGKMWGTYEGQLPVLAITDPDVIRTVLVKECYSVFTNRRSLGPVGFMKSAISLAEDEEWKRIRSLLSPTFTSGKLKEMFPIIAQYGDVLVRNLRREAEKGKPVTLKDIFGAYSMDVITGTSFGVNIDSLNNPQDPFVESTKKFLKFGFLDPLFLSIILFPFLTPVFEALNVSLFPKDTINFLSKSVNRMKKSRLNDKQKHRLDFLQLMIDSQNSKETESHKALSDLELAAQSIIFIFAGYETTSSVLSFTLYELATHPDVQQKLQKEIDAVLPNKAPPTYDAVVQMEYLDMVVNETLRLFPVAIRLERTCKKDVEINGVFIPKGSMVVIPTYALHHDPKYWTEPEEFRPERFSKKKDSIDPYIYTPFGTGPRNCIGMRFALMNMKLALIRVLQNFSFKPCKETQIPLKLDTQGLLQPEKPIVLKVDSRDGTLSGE
T4 sequence (P05181 whole entry): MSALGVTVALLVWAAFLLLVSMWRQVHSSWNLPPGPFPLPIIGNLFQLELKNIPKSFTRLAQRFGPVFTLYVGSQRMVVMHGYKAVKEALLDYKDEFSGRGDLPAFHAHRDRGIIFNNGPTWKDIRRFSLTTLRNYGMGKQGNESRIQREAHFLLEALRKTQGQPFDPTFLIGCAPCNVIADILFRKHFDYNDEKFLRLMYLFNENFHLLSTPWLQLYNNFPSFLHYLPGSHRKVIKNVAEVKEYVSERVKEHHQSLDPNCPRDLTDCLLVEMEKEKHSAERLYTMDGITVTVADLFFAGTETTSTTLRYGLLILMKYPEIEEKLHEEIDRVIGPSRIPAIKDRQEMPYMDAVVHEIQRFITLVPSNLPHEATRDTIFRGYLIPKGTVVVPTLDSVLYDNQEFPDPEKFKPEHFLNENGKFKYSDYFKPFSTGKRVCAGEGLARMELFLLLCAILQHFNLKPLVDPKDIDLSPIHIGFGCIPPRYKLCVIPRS
T2 sequence (P08684 whole entry): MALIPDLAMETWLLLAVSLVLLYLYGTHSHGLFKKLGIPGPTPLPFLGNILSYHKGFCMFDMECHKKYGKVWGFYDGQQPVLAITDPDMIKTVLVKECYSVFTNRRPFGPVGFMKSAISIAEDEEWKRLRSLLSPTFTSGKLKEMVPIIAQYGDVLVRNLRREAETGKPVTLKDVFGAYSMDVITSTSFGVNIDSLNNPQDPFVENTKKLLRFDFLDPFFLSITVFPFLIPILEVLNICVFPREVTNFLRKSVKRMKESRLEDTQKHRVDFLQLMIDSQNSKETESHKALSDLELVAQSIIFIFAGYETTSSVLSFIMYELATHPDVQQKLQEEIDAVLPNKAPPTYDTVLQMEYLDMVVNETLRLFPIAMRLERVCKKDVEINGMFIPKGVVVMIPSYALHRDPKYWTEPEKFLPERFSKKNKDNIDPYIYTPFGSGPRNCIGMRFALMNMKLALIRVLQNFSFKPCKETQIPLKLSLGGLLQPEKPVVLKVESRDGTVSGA
T1 sequence (P11712 whole entry): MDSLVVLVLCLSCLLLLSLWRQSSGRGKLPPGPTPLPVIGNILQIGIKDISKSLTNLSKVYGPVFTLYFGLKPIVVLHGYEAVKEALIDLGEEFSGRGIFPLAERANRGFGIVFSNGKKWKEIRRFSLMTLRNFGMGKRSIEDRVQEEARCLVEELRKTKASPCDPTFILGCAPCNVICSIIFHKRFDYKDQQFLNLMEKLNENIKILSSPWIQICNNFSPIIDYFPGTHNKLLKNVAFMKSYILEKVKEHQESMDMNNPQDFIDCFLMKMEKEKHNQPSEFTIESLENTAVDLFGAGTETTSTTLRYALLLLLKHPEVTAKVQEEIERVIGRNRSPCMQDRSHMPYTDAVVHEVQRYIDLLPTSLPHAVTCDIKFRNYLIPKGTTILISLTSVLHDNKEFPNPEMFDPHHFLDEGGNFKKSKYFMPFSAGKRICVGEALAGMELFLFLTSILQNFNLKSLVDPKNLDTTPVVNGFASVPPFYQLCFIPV

Q: Which “potency for TNF-alpha secretion” value (PBMCs) does the source give for `CCCCCCCCCCCC(=O)OCC(COP(=O)(O)OCCNC(=O)c1ccc(Cn2c(=O)[nH]c3c(N)nc(OCCOC)nc32)cc1)OC(=O)CCCCCCCCCCC` (centres unmarked) [SC12] here?
A: on average slightly more potent than compound A

Q: What about the “IL-10 production” value (human whole blood) of the same molecule?
A: no IL-10 production was seen

Q: And the “CD40 expression on B cells (MFI, words)” value (HLA-DR+/CD20+ B cells)?
A: induced CD40 expression in donor 1 and donor 2 in all tested concentrations

Q: And the “CD80 expression in pDCs (MFI, words)” value [1]?
A: slightly higher CD80 expression than compound A

Q: What about the “CD86 expression in pDCs (MFI, words)” value [1] of the same molecule?
A: tendency to induce higher CD86 expression than compound A

Q: What about the “toxicity to tester strains” value [2, 10] of the same molecule?
A: No toxicity was observed with any tester strain at any dose level

Q: And the “reverse mutation” value [2, 11]?
A: does not induce reverse mutation

Q: What about the “toxicity to tester strains” value [3, 10] of the same molecule?
A: No toxicity was observed with any tester strain at any dose level

Q: And the “reverse mutation” value [3, 11]?
A: does not induce reverse mutation

Q: What about the “mortality and clinical signs” value ([4]; 76 mg/kg, preliminary phase) of the same molecule?
A: No mortality occurred

Q: What about the “mortality and clinical signs” value ([4]; 80 mg/kg, main phase) of the same molecule?
A: No mortality occurred and no clinical signs were recorded

Q: And the “mortality and clinical signs” value ([4]; 85 mg/kg, preliminary phase)?
A: Piloerection was observed on the day of dosing

Q: What about the “necropsy examination” value ([4]; 90 mg/kg and 80 mg/kg) of the same molecule?
A: No abnormalities were observed at necropsy examination

Q: What about the “mortality and clinical signs” value ([4]; 90 mg/kg, main phase, 5 male and 5 female) of the same molecule?
A: Three males treated at 90 mg/kg died immediately after dosing, while two females died at 2 hours post-dose

Q: What about the “mortality and clinical signs” value ([4]; 90 mg/kg, preliminary phase) of the same molecule?
A: No mortality occurred

Q: And the “mortality and clinical signs” value ([4]; 100 mg/kg, preliminary phase)?
A: Both animals died at dosing

Q: And the “body weight” value ([4]; surviving animals at 90 mg/kg and animals at 80 mg/kg)?
A: slight to moderate body weight loss on Day 2

Q: What about the “binding to receptors associated with pain-related syndromes (e.g. adenosine and sodium channel)” value [5] of the same molecule?
A: did not bind this type of receptors

Q: And the “inhibition of CYP2C9” value (CYP2C9)?
A: weak inhibition

Q: And the “inhibition of CYP3A4” value (CYP3A4)?
A: moderate inhibition

Q: What about the “inhibition of CYP3A5” value (CYP3A5) of the same molecule?
A: moderate inhibition

Q: What about the “inhibition of CYP2E1” value (CYP2E1) of the same molecule?
A: moderate inhibition

Q: What about the “local side effects” value ([6]; subcutaneous, 10 nMol) of the same molecule?
A: No local side effects

Q: What about the “IgG responses against the target antigens” value ([6]; three subcutaneous immunizations, 20 micrograms antigen with 10 nMol adjuvant) of the same molecule?
A: developed IgG responses

Q: What about the “serum IL-6 and TNF-alpha” value (MB49 cells; Experiment 1, in Phosal 50, 50 microliters, 20 minutes, 2 h and 24 h) of the same molecule?
A: under the detection levels

Q: What about the “bladder histology, cell infiltration” value (MB49 cells; Experiment 4, SC12 0.38%, MB49 implanted bladder, day 11) of the same molecule?
A: more monocyte infiltration

Q: And the “toxicity” value [7]?
A: No signs of toxicity

Q: And the “cell numbers, real-time cell analysis” value ([8]; FIG. 11)?
A: reduced cell numbers

Q: And the “morphology and proliferation” value ([8]; day 3, 120 microM)?
A: cell detachment, morphological changes and inhibition of proliferation

Q: What about the “adverse behavioral effects” value ([9]; IV 1 mg/kg) of the same molecule?
A: No adverse behavioral effects were noted

Q: What about the “AUC INF obs” value ([9]; IV bolus 1 mg/kg, plasma) of the same molecule?
A: 12878 ng·min/mL

Q: What about the AUClast ([9]; IV bolus 1 mg/kg, plasma) of the same molecule?
A: 11744 ng·min/mL
